How the values were obtained:
[1] = target: T1, CCKA (Cavia porcellus, UniProt Q63931); experiment: CCKA binding assay, guinea pig pancreas membranes ([125I]-CCK8(S)); settings: [125I]-CCK8(S) 200 pM, 0.375 μM PD134,308, 150 min at 21±3° C.; for Ki: pH 7.2, read-out: pKi (Guinea pig pancreas) (converted); for pKi (Guinea pig pancreas): pH 7.2
T1 construct: The pancreatata were removed from male guinea-pigs; from tissue; host or cells: pancreas of male Dunkin Hartley guinea pigs, membranes
T1 sequence (Q63931 1-430): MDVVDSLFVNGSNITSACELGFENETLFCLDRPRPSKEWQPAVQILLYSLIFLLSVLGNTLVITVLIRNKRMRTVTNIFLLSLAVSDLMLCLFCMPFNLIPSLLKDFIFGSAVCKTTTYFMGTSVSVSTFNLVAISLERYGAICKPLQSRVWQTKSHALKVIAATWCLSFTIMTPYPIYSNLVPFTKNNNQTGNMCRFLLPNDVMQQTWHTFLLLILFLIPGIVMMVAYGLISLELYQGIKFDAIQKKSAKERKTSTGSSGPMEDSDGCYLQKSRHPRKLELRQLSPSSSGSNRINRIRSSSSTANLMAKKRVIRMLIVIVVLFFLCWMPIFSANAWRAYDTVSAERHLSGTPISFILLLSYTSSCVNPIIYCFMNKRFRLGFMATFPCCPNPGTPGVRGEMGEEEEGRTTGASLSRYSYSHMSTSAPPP
Outline: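 Guinea-pig pancreatic membranes (1 mg/ml original wet weight, containing 0.375 μM PD134,308) were incubated 150 min at 21±3 °C in HEPES pH 7.2 with [125I]-CCK8(S), added at 200 pM, and competitor. Non-specific binding used L-364,718 (100 nM added). Bound tracer was filtered on GF/B and gamma-counted.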

[2] = target: T2, CCKB receptor (Mus musculus, UniProt P56481); experiment: radioligand binding assay at the CCKB receptor in mouse cortical membranes ([125I]-CCK8S); settings: [125I]-CCK8S 200 pM, 150 min at 21±3° C.; for Ki: pH 7.2, read-out: pKi (Mouse cortex) (converted); for pKi (Mouse cortex): pH 7.2
T2 construct: The cortex was dissected, weighed and homogenised in 40 ml ice-cold buffer; tissue Charles River (animals); host or cells: cerebral cortex of male CD1 mice, membranes
T2 sequence (P56481 1-453): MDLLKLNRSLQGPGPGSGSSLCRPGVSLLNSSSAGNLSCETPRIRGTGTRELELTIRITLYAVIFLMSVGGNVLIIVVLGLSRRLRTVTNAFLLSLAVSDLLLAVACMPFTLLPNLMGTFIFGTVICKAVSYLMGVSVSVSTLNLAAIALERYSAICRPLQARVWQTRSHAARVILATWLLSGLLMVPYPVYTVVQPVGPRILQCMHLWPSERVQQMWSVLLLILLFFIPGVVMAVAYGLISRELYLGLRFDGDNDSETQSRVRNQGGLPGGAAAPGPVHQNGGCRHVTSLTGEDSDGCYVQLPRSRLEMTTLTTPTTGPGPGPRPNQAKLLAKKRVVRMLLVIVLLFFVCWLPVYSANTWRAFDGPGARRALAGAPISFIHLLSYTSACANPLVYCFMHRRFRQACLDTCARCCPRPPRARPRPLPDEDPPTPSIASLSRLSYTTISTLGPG
Outline: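 Male CD1 mouse cortical membranes (2 mg/ml original wet weight) were incubated 150 min at 21±3 °C in HEPES buffer pH 7.2 (130 mM NaCl, 4.7 mM KCl, 5 mM MgCl2, 1 mM EDTA, bacitracin) with [125I]-CCK8S and competitor. Non-specific binding was defined with L-365,260; bound label was measured by GF/B filtration and gamma counting.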

SMILES | Ki [1] [µM] | Ki [2] [µM] | pKi (Guinea pig pancreas) [1] | pKi (Mouse cortex) [2]
Cc1cccc(NC(=O)N2CCC(=O)c3ccccc3N(CC(=O)OC(C)(C)C)C(=O)C2)c1 [Example 1, 1-tert-butyloxycarbonylmethyl-4-(3-methylphenyl)carbamyl-2,7-dioxo-2,3,4,5,6,7-hexahydro-1H-1,4-benzodiazonine] | 0.2 | 10 |  | 
Cc1cccc(NC(=O)N2CCC(=O)c3ccccc3N(Cc3ccccc3)C(=O)C2)c1 [Example 3, 1-benzyl-4-(3-methylphenyl)carbamyl-2,7-dioxo-2,3,4,5,6,7-hexahydro-1H-1,4-benzodiazonine] | 0.316 | 7.94 |  | 
Cc1cccc(NC(=O)N2CCC(=O)c3ccccc3NC(=O)C2)c1 [Example 5, 4-(3-methylphenyl)carbamyl-2,7-dioxo-2,3,4,5,6,7-hexahydro-1H-1,4-benzodiazonine] | 5.01 | 10 |  | 
Nc1cccc(CN2C(=O)C(CC34CC5CC(CC(C5)C3)C4)N(C(=O)CC(=O)O)CCC(=O)c3ccccc32)c1 (racemic) [Example 35, (R/S)-3-(1-adamantyl)methyl-1-(3-amino)benzyl-4-carboxymethylcarbonyl-2,7-dioxo-2,3,4,5,6,7-hexahydro-1H-1,4-benzodiazonine] | 7.94 | 2.51 |  | 
CC(=O)N1[C@H](CC(C)(C)C)C(=O)N(Cc2ccccc2)c2ccccc2C(=O)C[C@H]1C(=O)O [Example 19, (3R,5S)-4-acetyl-1-benzyl-3-(2,2-dimethylpropyl)-2,7-dioxo-2,3,4,5,6,7-hexahydro-1H-1,4-benzodiazonine-5-carboxylate] | 15.8 | 7.94 |  | 
COc1ccc(CN2C(=O)[C@@H](CC34CC5CC(CC(C5)C3)C4)N(C(C)=O)[C@H](C(=O)Nc3cc(C(=O)O)cc(C(=O)O)c3)CC(=O)c3ccccc32)cc1 [Example 31] | 6.31 | 1.58 |  | 
O=C1C[C@@H](C(=O)O)N(C(=O)OCc2ccccc2)[C@H](CC23CC4CC(CC(C4)C2)C3)C(=O)N(Cc2ccccc2)c2ccccc21 [Example 20, (3R,5S)-3-(1-adamantyl)methyl-1-benzyl-4-benzyloxycarbonyl-2,7dioxo-2,3,4,5,6,7-hexahydro-1H-1,4-benzodiazonine-5-carboxylate] | 3.98 | 3.16 |  | 
CC(=O)N1[C@H](CC23CC4CC(CC(C4)C2)C3)C(=O)N(Cc2ccccc2)c2ccccc2C(=O)C[C@H]1C(=O)N[C@@H](C)C(=O)O [Example 24, (3R,5S)-4-acetyl-3-(1-adamantyl)methyl-1-benzyl-5-[(1S)-carboxy]ethylaminocarbonyl-2,7-dioxo-2,3,4,5,6,7-hexahydro-1H-1,4-benzodiazonine] |  |  | 5.0 | 6.9
CC(=O)N1[C@H](CC23CC4CC(CC(C4)C2)C3)C(=O)N(C)c2ccccc2C(=O)C[C@H]1C(=O)NCC(=O)O [Example 32, (3R,5S)-4-acetyl-3-(1-adamantyl)methyl-5-carboxymethylaminocarbonyl-1-methyl-2,7-dioxo-2,3,4,5,6,7-hexahydro-1H-1,4-benzodiazonine] | 10 | 5.01 |  | 
CC(=O)N1[C@H](CC23CC4CC(CC(C4)C2)C3)C(=O)N(Cc2cccc(N)c2)c2ccccc2C(=O)C[C@H]1C(=O)O [Example 17, (3R,5S)-4-acetyl-3-[(1-adamantyl)methyl]-1-(3-amino)benzyl-2,7-dioxo-2,3,4,5,6,7-hexahydro-1H-1,4-benzodiazonine-5-carboxylate] | 6.31 | 1.26 |  | 
CC(=O)N1[C@H](CC23CC4CC(CC(C4)C2)C3)C(=O)N(Cc2ccccc2)c2ccccc2C(=O)C[C@H]1C(=O)N[C@H](C)C(=O)O [Example 25, (3R,5S)-4-acetyl-3-(1-adamantyl)methyl-1-benzyl-5-[(1R)-carboxy]ethylaminocarbonyl-2,7-dioxo-2,3,4,5,6,7-hexahydro-1H-1,4-benzodiazonine] | 6.31 | 0.398 |  | 
CCOC(=O)CN1C(=O)CN(C(=O)Nc2cccc(C)c2)CCC(=O)c2ccccc21 [Example 4, 1-ethoxycarbonylmethyl-4-(3-methylphenyl)carbamyl-2,7-dioxo-2,3,4,5,6,7-hexahydro-1H-1,4-benzodiazonine] | 3.16 | 10 |  | 
CC(=O)N1[C@H](CC23CC4CC(CC(C4)C2)C3)C(=O)N(Cc2ccccc2)c2ccccc2C(=O)C[C@H]1C(=O)NC(C)(C)C(=O)O [Example 26, (3R,5S)-4-acetyl-3-(1-adamantyl)methyl-1-benzyl-5-(1-carboxy-1-methyl)ethylaminocarbonyl-2,7-dioxo-2,3,4,5,6,7-hexahydro-1H-1,4-benzodiazonine] | 6.31 | 1 |  | 

The next lines start with the values.

Ki [1] [µM] | Ki [2] [µM] | pKi (Guinea pig pancreas) [1] | pKi (Mouse cortex) [2] | SMILES
0.158 | 3.16 |  |  | CC1CCN(C(=O)Nc2ccc(Cl)c(Cl)c2)CC(=O)N(Cc2ccccc2)c2ccccc21 (stereo not shown) [Example 44, 1-benzyl-4-(3,4-dichlorophenyi)carbamyl-7-methyl-2-oxo-2,3,4,5,6,7-hexahydro-1H-1,4-benzodiazonine]
 |  | 4.7 | 5.4 | CC(=O)N1[C@H](CC2CCCCC2)C(=O)N(Cc2ccccc2)c2ccccc2C(=O)C[C@H]1C(=O)NCC(=O)O [Example 40, (3R,5S)-4-acetyl-1-benzyl-5-carboxymethylaminocarbonyl-3-cyclohexylmethyl-2,7-dioxo-2,3,4,5,6,7-hexahydro-1H-1,4-benzodiazonine]
0.794 | 3.16 |  |  | CCC1CCN(C(=O)Nc2cccc(C)c2)CC(=O)N(Cc2ccccc2)c2ccccc21 (stereo not shown) [Example 51, 1-benzyl-7-ethyl-4-(3-methylphenyl)carbamyl-2-oxo-5,2,3,4,5,6,7-hexahydro-1H-1,4-benzodiazonine]
0.2 | 10 |  |  | CCC1CCN(C(=O)Nc2ccc(Cl)c(Cl)c2)CC(=O)N(Cc2ccccc2)c2ccccc21 (stereo not shown) [Example 52, 1-benzyl-7-ethyl-4-(3,4-dichlorophenyl)carbamyl-2-oxo-2,3,4,5,6,7-hexahydro-1H-1,4-benzodiazonine]
 |  | 5.0 | 5.3 | CC(=O)N1[C@H](CCC(C)C)C(=O)N(Cc2ccccc2)c2ccccc2C(=O)C[C@H]1C(=O)NCC(=O)O [Example 38, (3R,5S)-4-acetyl-1-benzyl-5-carboxymethylaminocarbonyl-3-(3,3-dimethyl)propyl-2,7-dioxo-2,3,4,5,6,7-hexahydro-1H-1,4-benzodiazonine]
5.01 | 3.16 |  |  | CC(=O)N1[C@@H](C(=O)NCC(=O)O)CC(=O)c2ccccc2N(Cc2ccccc2)C(=O)[C@@H]1CC12CC3CC(CC(C3)C1)C2 [Example 36, (3S,5R)-4-acetyl-3-(1-adamantyl)methyl-1-benzyl-5-carboxymethylaminocarbonyl-2,7-dioxo-2,3,4,5,6,7-hexahydro-1H-1,4-benzodiazonine]
10 | 0.398 |  |  | CC(=O)N1[C@H](CC23CC4CC(CC(C4)C2)C3)C(=O)N(Cc2ccccc2)c2ccccc2C(=O)C[C@H]1C(=O)NCC(=O)NS(C)(=O)=O [Example 41, (3R,5S)-4-acetyl-3-(1-adamantyl)methyl-1-benzyl-5-methanesulphonamidocarboxymethylaminocarbonyl-2,7-dioxo-2,3,4,5,6,7-hexahydro-1H-1,4-benzodiazonine]

— patent publication US6057311A, “Benzodiazonine derivatives binding to cholecystokinin or gastrin receptors” (James Black Foundation Limited, priority 1996, dated 2000)
